Patent publication US9403808B2, “Pyrazine derivatives” (Hoffmann-La Roche Inc., priority 2011, dated 2016)
Where two headings read alike, the source gives them in different places.

Legend:
human CB2 receptors = human CB2 receptors (Homo sapiens (Human), UniProt P34972); assay: functional cAMP assay, CB2; type: cell-based
Method: (§1) CHO cells expressing human CB1 or CB2 receptors are seeded 17-24 hours prior to the experiment 50.000 cells per well in a black 96 well plate with flat clear bottom (Corning Costar #3904) in DMEM (Invitrogen No. 31331), 1×HT supplement, with 10% fetal calf serum and incubated at 5% CO2 and 37° C. in a humidified incubator. The growth medium was exchanged with Krebs Ringer Bicarbonate buffer with 1 mM IBMX and incubated at 30° C. for 30 min. Compounds were added to a final assay volume of 100 μl and incubated for 30 min at 30° C. Using the cAMP-Nano-TRF detection kit the assay (Roche Diagnostics) was stopped by the addition of 50 μl lysis reagent (Tris, NaCl, 1.5% Triton X100, 2.5% NP40, 10% NaN3) and 50 μl detection solutions (20 μM mAb Alexa700-cAMP 1:1, and 48 μM Ruthenium-2-AHA-cAMP) and shaken for 2 h at room temperature. The time-resolved energy transfer is measured by a TRF reader (Evotec Technologies GmbH), equipped with a ND:YAG laser as excitation source. The plate is measured twice with the excitation at 355 nm and at the emission with a delay of 100 ns and a gate of 100 ns, total exposure time 10s at 730 (bandwidth 30 nm) or 645 nm (bandwidth 75 nm), respectively. The FRET signal is calculated as follows: FRET=T730-Alexa730-P(T645-B645) with P=Ru730-B730/Ru645-B645, where T730 is the test well measured at […], T645 is the test well measured at 645 nm, B730 and B645 are the buffer controls at 730 nm and 645 nm, respectively. cAMP content is determined from the function of a standard curve spanning from 10 μM to 0.13 nM cAMP.
(§2) EC50 values were determined using Activity Base analysis (ID Business Solution, Limited). The EC50 values for a wide range of cannabinoid agonists generated from this assay were in agreement with the values published in the scientific literature.

human CB1 receptors = human CB1 receptors (Homo sapiens (Human), UniProt P21554); assay: functional cAMP assay, CB1; type: cell-based
Sequence of human CB1 receptors (P21554 whole entry): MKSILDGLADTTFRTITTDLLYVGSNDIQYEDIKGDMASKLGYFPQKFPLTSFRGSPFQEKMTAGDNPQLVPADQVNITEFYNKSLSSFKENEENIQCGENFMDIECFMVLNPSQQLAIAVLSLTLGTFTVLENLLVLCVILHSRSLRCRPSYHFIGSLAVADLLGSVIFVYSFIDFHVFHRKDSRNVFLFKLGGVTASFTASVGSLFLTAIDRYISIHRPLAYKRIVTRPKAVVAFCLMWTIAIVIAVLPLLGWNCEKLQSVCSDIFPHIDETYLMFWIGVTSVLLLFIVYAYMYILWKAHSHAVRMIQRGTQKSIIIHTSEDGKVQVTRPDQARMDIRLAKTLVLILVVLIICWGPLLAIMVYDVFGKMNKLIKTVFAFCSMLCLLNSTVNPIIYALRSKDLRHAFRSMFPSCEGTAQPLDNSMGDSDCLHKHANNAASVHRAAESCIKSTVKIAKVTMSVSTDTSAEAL
Method: as §1, §2

[1] = functional cAMP assay, CHO cells expressing human CB2, read-out: human CB2 EC50
[2] = functional cAMP assay, CHO cells expressing human CB1, read-out: human CB1 EC50

Sequence of human CB2 receptors (P34972 whole entry): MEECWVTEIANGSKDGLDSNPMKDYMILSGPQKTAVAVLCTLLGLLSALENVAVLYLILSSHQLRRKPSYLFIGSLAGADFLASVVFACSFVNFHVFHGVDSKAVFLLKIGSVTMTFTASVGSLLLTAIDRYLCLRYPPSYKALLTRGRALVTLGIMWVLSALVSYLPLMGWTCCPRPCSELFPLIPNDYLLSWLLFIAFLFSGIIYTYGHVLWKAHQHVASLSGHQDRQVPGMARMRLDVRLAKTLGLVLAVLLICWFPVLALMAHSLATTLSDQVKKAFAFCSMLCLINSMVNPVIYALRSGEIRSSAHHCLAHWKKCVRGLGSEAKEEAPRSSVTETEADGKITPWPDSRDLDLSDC

| SMILES | EC50 (human CB2 receptors; [1]) [nM] | further results |
| --- | --- | --- |
| NC(=O)[C@H]1CCCC[C@H]1NC(=O)c1cnc(N2CC(F)(F)C2)c(OCC2CC2)n1 (single isomer, unassigned) [Example 81] |  | EC50 (human CB2 receptors): 31.2 nM |
| Cc1nc([C@@H](NC(=O)c2cnc(C3CC3)c(OCC3CC3)n2)C2CC2)no1 (stereo in doubt) [Example 40, 5-Cyclopropyl-6-cyclopropylmethoxy-pyrazine-2-carboxylic acid [(SR)-cyclopropyl-(5-methyl-[1,2,4]oxadiazol-3-yl)-methyl]-amide] |  | EC50 (human CB2 receptors): 30.8 nM; EC50 (human CB1 receptors): > 10000 nM |
| Cc1nc([C@H](NC(=O)c2cnc(C3CC3)c(OCC3CC3)n2)C2CC2)no1 (stereo in doubt) [Example 41, 5-Cyclopropyl-6-cyclopropylmethoxy-pyrazine-2-carboxylic acid [(RS)-cyclopropyl-(5-methyl-[1,2,4]oxadiazol-3-yl)-methyl]-amide] |  | EC50 (human CB2 receptors): 518 nM; EC50 (human CB1 receptors): > 10000 nM |
| Cc1nc([C@@H](NC(=O)c2cnc(N3CC(F)(F)C3)c(OCC3CC3)n2)C2CC2)no1 (stereo in doubt) [Example 42, 6-Cyclopropylmethoxy-5-(3,3-difluoro-azetidin-1-yl)-pyrazine-2-carboxylic acid [(SR)-cyclopropyl-(5-methyl-[1,2,4]oxadiazol-3-yl)-methyl]-amide] |  | EC50 (human CB2 receptors): 28 nM; EC50 (human CB1 receptors): > 10000 nM |
| Cc1nc([C@H](NC(=O)c2cnc(N3CC(F)(F)C3)c(OCC3CC3)n2)C2CC2)no1 (stereo in doubt) [Example 43, 6-Cyclopropylmethoxy-5-(3,3-difluoro-azetidin-1-yl)-pyrazine-2-carboxylic acid [(RS)-cyclopropyl-(5-methyl-[1,2,4]oxadiazol-3-yl)-methyl]-amide] |  | EC50 (human CB2 receptors): 40.9 nM; EC50 (human CB1 receptors): > 10000 nM |
| Cc1nc(C(C)(C)NC(=O)c2cnc(C3CC3)c(-c3cccc(Cl)c3)n2)no1 [Example 1, 6-(3-Chloro-phenyl)-5-cyclopropyl-pyrazine-2-carboxylic acid [1-methyl-1-(5-methyl-[1,2,4]oxadiazol-3-yl)-ethyl]amide] | 88.1 | EC50 (human CB1 receptors; [2]): 1150 nM |
| CC(C)(C#N)NC(=O)c1cnc(C2CC2)c(-c2cccc(Cl)c2)n1 [Example 2, 6-(3-Chloro-phenyl)-5-cyclopropyl-pyrazine-2-carboxylic acid (cyano-dimethyl-methyl)-amide] | 104 | EC50 (human CB1 receptors; [2]): > 10000 nM |
| Cc1nc(C2(NC(=O)c3cnc(C4CC4)c(-c4cccc(Cl)c4)n3)CCC2)no1 [Example 3, 6-(3-Chloro-phenyl)-5-cyclopropyl-pyrazine-2-carboxylic acid [1-(5-methyl-[1,2,4]oxadiazol-3-yl)-cyclobutyl]-amide] | 156 | EC50 (human CB1 receptors; [2]): > 10000 nM |
| NC(=O)[C@@H](NC(=O)c1cnc(C2CC2)c(OCC2CC2)n1)c1ccc(F)cc1 [Example 63, 5-Cyclopropyl-6-cyclopropylmethoxy-pyrazine-2-carboxylic acid [(S)-carbamoyl-(4-fluoro-phenyl)-methyl]-amide] | 96.6 |  |
| NC(=O)[C@@H](NC(=O)c1cnc(N2CC(F)(F)C2)c(OCC2CC2)n1)c1ccc(F)cc1 [Example 64, 6-Cyclopropylmethoxy-5-(3,3-difluoro-azetidin-1-yl)-pyrazine-2-carboxylic acid [(S)-carbamoyl-(4-fluoro-phenyl)-methyl]-amide] | 31.2 |  |
| Cc1nc([C@H](CC2CC2)NC(=O)c2cnc(C3CC3)c(OCC3CC3)n2)no1 [Example 65, 5-Cyclopropyl-6-cyclopropylmethoxy-pyrazine-2-carboxylic acid [(S)-2-cyclopropyl-1-(5-methyl-[1,2,4]oxadiazol-3-yl)-ethyl]-amide] | 20.7 |  |
| COC(=O)[C@H](CC(C)C)NC(=O)c1cnc(N2CC(F)(F)C2)c(OCC2CC2)n1 [Example 66, (S)-2-{[6-Cyclopropylmethoxy-5-(3,3-difluoro-azetidin-1-yl)-pyrazine-2-carbonyl]-amino}-4-methyl-pentanoic acid methyl ester] | 0.4 |  |
| CC(C)C[C@H](NC(=O)c1cnc(N2CC(F)(F)C2)c(OCC2CC2)n1)C(=O)NCC(F)(F)F [Example 67, 6-Cyclopropylmethoxy-5-(3,3-difluoro-azetidin-1-yl)-pyrazine-2-carboxylic acid [(S)-3-methyl-1-(2,2,2-trifluoro-ethylcarbamoyl)-butyl]-amide] | 57.6 |  |
| NC(=O)[C@@H](NC(=O)c1cnc(N2CC(F)(F)C2)c(OCC2CC2)n1)c1ccc(Cl)cc1 [Example 68, 6-Cyclopropylmethoxy-5-(3,3-difluoro-azetidin-1-yl)-pyrazine-2-carboxylic acid [(S)-carbamoyl-(4-chloro-phenyl)-methyl]-amide] | 116 |  |
| CC(C)(CCCO)NC(=O)c1cnc(C2CC2)c(OCC2CC2)n1 [Example 69, 5-Cyclopropyl-6-cyclopropylmethoxy-pyrazine-2-carboxylic acid (4-hydroxy-1,1-dimethyl-butyl)-amide] | 47.4 |  |
| Cc1oc(-c2ccccc2)nc1CC(C)(C)NC(=O)c1cnc(C2CC2)c(OCC2CC2)n1 [Example 71, 5-Cyclopropyl-6-cyclopropylmethoxy-pyrazine-2-carboxylic acid [1,1-dimethyl-2-(5-methyl-2-phenyl-oxazol-4-yl)-ethyl]-amide] | 201 |  |
| CC(CC(C)(C)NC(=O)c1cnc(C2CC2)c(OCC2CC2)n1)c1ccncc1 (stereo not shown) [Example 72, 5-Cyclopropyl-6-cyclopropylmethoxy-pyrazine-2-carboxylic acid (1,1-dimethyl-3-pyridin-4-yl-butyl)-amide] | 92.6 |  |
| COC(=O)C1(NC(=O)c2cnc(N3CC(F)(F)C3)c(OCC3CC3)n2)CCC1 [Example 73, 1-{[6-Cyclopropylmethoxy-5-(3,3-difluoro-azetidin-1-yl)-pyrazine-2-carbonyl]-amino}-cyclobutanecarboxylic acid methyl ester] | 20.5 |  |
| CC(C)[C@H](CC(N)=O)NC(=O)c1cnc(C2CC2)c(OCC2CC2)n1 [Example 76, 5-Cyclopropyl-6-cyclopropylmethoxy-pyrazine-2-carboxylic acid ((S)-1-carbamoylmethyl-2-methyl-propyl)-amide] | 16.3 |  |
| CC(C)[C@H](CC(N)=O)NC(=O)c1cnc(N2CC(F)(F)C2)c(OCC2CC2)n1 [Example 77, 6-Cyclopropylmethoxy-5-(3,3-difluoro-azetidin-1-yl)-pyrazine-2-carboxylic acid ((S)-1-carbamoylmethyl-2-methyl-propyl)-amide] | 6.5 |  |
| Cc1nc([C@](C)(CC2CC2)NC(=O)c2cnc(N3CC(F)(F)C3)c(OCC3CC3)n2)no1 [Example 78, (+)-6-Cyclopropylmethoxy-5-(3,3-difluoro-azetidin-1-yl)-pyrazine-2-carboxylic acid [2-cyclopropyl-1-methyl-1-(5-methyl-[1,2,4]oxadiazol-3-yl)-ethyl]-amide] | 17.4 |  |
| Cc1nc([C@@](C)(CC2CC2)NC(=O)c2cnc(N3CC(F)(F)C3)c(OCC3CC3)n2)no1 [Example 79, (−)-6-Cyclopropylmethoxy-5-(3,3-difluoro-azetidin-1-yl)-pyrazine-2-carboxylic acid [2-cyclopropyl-1-methyl-1-(5-methyl-[1,2,4]oxadiazol-3-yl)-ethyl]-amide] | 4 |  |
| NC(=O)[C@@H]1CCCC[C@@H]1NC(=O)c1cnc(C2CC2)c(OCC2CC2)n1 [Example 82] | 257 |  |
| NC(=O)[C@H]1CCCC[C@H]1NC(=O)c1cnc(C2CC2)c(OCC2CC2)n1 [Example 83] | 44.4 |  |
